The structures appear in SMILES notation.

The target in the assay is T1, human H-PGDS (Homo sapiens, UniProt O60760).
T1 construct: Full length human H-PGDS cDNA (Invitrogen Ultimate ORF IOH13026) was amplified by PCR; 6-His (N); TEV protease cleavage site (N); made in house; host or cells: E. coli BL21 (DE3*) for H-PGDS; Sf9 insect cells (baculovirus) for COX-2
T1 sequence (O60760 whole entry): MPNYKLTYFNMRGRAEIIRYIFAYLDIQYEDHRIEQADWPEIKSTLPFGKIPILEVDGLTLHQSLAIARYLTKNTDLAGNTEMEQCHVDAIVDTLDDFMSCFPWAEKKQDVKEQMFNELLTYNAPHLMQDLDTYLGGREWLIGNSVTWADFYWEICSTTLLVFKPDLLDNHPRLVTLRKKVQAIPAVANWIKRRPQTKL
Kind of assay: H-PGDS RapidFire high throughput mass spectrometry assay. The format is biochemical. Particulars: inhibition of conversion of PGH2 to PGD2 by H-PGDS; mean pIC50; read-out: Potency Range (mean pIC50) (converted). The procedure: H-PGDS RapidFire™ High Throughput Mass Spectrometry Assay
The H-PGDS RapidFire™ mass spectrometric assay monitors conversion of prostaglandin H2 (PGH2) to prostaglandin D2 (PGD2) by haematopoietic prostaglandin D synthase (H-PGDS). In the assay format described here, the substrate (PGH2) is formed in situ by the action of cyclooxygenase-2 on arachidonic acid. This first step is set up to be fast, and generates a burst of PGH2 at ˜10 μM. The PGH2 is then further converted to PGD2 by the H-PGDS enzyme. […] Plates are then read on the RapidFire™ high throughput solid phase extraction system (Agilent) which incorporates a solid phase extraction step coupled to a triple quadrupole mass spectrometer (AB SCIEX). Relative levels of PGD2 and PGF2α, which acts as a surrogate for substrate, are measured and a percent conversion calculated. Inhibitors are characterised as compounds which lower the conversion of PGH2 to PGD2.
Full length human H-PGDS cDNA (Invitrogen Ultimate ORF IOH13026) was amplified by PCR with the addition of a 5′ 6-His tag and TEV protease cleavage site. The PCR product was digested with NdeI and XhoI and ligated into pET22b+ (Merck Novagen®). Expression was carried out in E. coli strain BL21 (DE3*) using auto-induction Overnight Express™ Instant TB medium (Merck Novagen®) supplemented with 1% glycerol. The culture was first grown at 37° C. and the temperature was reduced to 25° C. when OD600 reached 2.0. Cells were harvested by centrifugation after a further 18 hours. 10 g of E. coli cell pellet was suspended to a total volume of 80 mL in lysis buffer (20 mM Tris-Cl pH 7.5, 300 mM NaCl, 20 mM imidazole, 5 mM p-mercaptoethanol, 10% glycerol). 1 mg/mL protease inhibitors (Protease Inhibitor Cocktail Set III, Merck Calbiochem®) and 1 mg/mL lysozyme were added to the cell suspension. The suspension was then sonicated for 5 min (UltraSonic Processor VCX 750, Cole-Parmer Instrument Co.) with a micro probe (50% amplitude, 10 sec on/off) and then centrifuged at 100,000 g for 90 minutes (at 4° C.). The supernatant was loaded onto a Ni-NTA HiTrap column (5 mL, GE Healthcare, pre-equilibrated in lysis buffer). The column was washed with 10 column volumes of lysis buffer and eluted with lysis buffer containing 500 mM imidazole. The pooled protein peak fractions were concentrated using a 10 kDa centrifugal filter at 3500 g and 4° C. (Amicon Ultra-15 centrifugal filter unit with Ultracel-10 membrane from Millipore). Further purification of the concentrated protein was carried out using gel filtration chromatography on a HiLoad 26/600 Superdex 75 preparative grade column (GE Healthcare Life Sciences) using 50 mM Tris pH 7.5, 50 mM NaCl, 1 mM dithiothreitol, 1 mM MgCl2. Fractions containing the protein were pooled, concentrated as described above, and stored at −80° C.
The full length human COX-2 gene (accession number L15326) was amplified by PCR to generate an EcoRI—HindIII fragment containing an in-frame FLAG tag. This was subcloned into pFastBac 1 (Invitrogen). The COX-2 FLAG plasmid was recombined into the baculovirus genome according to the BAC-to-BAC protocol described by Invitrogen. Transfection into Spodoptera frugiperda (Sf9) insect cells was performed using Cellfectin (Invitrogen), according to the manufacturer's protocol. Super Sf9 cells were cultured in EX420 media (SAFC Biosciences) to a density of approximately 1.5×10^6 cells/mL within a wave bioreactor. Recombinant virus was added at a Multiplicity of Infection (MOI) of 5 and the culture was allowed to continue for 3 days. Cells were harvested using a continuous feed centrifuge run at 2500 g at a rate of approximately 2 L/min with cooling. The resultant cell slurry was re-centrifuged in pots (2500 g, 20 min, 4° C.) and the cell paste was stored at −80° C. […]
Take `O=C(N[C@@H]1CCNC1=O)c1cnc(-c2cc(F)cc(Cl)c2)s1` [Example 26, (R)-2-(3-Chloro-5-fluorophenyl)-N-(2-oxopyrrolidin-3-yl)thiazole-5-carboxamide]: the IC50 is 102 to 1000 nM.
As for `O=C(NC1CC2(CCC2)NC1=O)c1cnc(-c2cc(F)cc(Cl)c2)s1` (racemic) [Example 27, Racemic 2-(3-Chloro-5-fluorophenyl)-N-(6-oxo-5-azaspiro[3.4]octan-7-v)thiazole-5-carboxamide], the IC50 is 10.2 to 100 nM.
Consider `O=C(N[C@H]1C(=O)N[C@H]2CCC[C@H]21)c1cnc(-c2cc(F)cc(Cl)c2)s1` (racemic) [Example 58, Racemic 2-(3-Chloro-5-fluorophenyl)-N-((3R,3aR,6aS)-2-oxooctahydrocyclopenta[b]pyrrol-3-yl)thiazole-5-carboxamide; and 2-(3-Chloro-5-fluorophenyl)-N-((3S,3aS,6aR)-2-oxooctahydrocyclopenta[b]pyrrol-3-yl)thiazole-5-carboxamide], for which the IC50 was 10.2 to 100 nM.
Consider `O=C(N[C@H]1C(=O)N[C@@H]2CCC[C@@H]21)c1cnc(-c2cc(F)cc(Cl)c2)s1` [Example 50, 2-(3-Chloro-5-fluorophenyl)-N-((3R,3aS,6aR)-2-oxooctahydrocyclopenta[b]pyrrol-3-yl)thiazole-5-carboxamide], for which the IC50 is 102 to 1000 nM.
Take `C[C@@H]1C[C@@H](NC(=O)c2cnc(-c3cc(F)cc(Cl)c3)s2)C(=O)N1` [Example 61, 2-(3-Chloro-5-fluorophenyl)-N-((3R,5R)-5-methyl-2-oxopyrrolidin-3-yl)thiazole-5-carboxamide]: the IC50 is 102 to 1000 nM.
Take `C[C@@H]1CNC(=O)[C@H]1NC(=O)c1cnc(-c2cc(F)cc(Cl)c2)s1` [Example 11, 2-(3-Chloro-5-fluorophenyl)-N-((3S,4R)-4-methyl-2-oxopyrrolidin-3-yl)thiazole-5-carboxamide]: the IC50 was 1.02 to 10 nM.
Turning to `COc1ccc(CN2CCC(C)(NC(=O)c3cnc(-c4cc(F)cc(Cl)c4)s3)C2=O)cc1` (racemic) [Example 70, Racemic 2-(3-Chloro-5-fluorophenyl)-N-(1-(4-methoxybenzyl)-3-methyl-2-oxopyrrolidin-3-yl)thiazole-5-carboxamide], the IC50 is 102 to 1000 nM.
With `Cc1ccc(-c2ncc(C(=O)N[C@H]3CCNC3=O)s2)cc1` [Example 44, (S)-N-(2-Oxopyrrolidin-3-yl)-2-(p-tolyl)thiazole-5-carboxamide], the IC50 is 1020 to 10000 nM.
As to `CN1CCC(NC(=O)c2cnc(-c3cc(F)cc(Cl)c3)s2)C1=O` (racemic) [Example 63, Racemic 2-(3-Chloro-5-fluorophenyl)-N-(1-methyl-2-oxopyrrolidin-3-yl)thiazole-5-carboxamide], the IC50 was 10.2 to 100 nM.
As for `Cc1cnn(-c2ncc(C(=O)N[C@H]3CCNC3=O)s2)c1` [Example 31, (S)-2-(4-Methyl-1H-pyrazol-1-yl)-N-(2-oxopyrrolidin-3-yl)thiazole-5-carboxamide], the figure is 1020 to 10000 nM; as for `O=C1NCC[C@@H]1NC(=S)c1cnc(-c2cc(F)cc(Cl)c2)s1` [Example 80, (S)-2-(3-chloro-5-fluorophenyl)-N-(2-oxopyrrolidin-3-yl)thiazole-5-carbothioamide], 1.02 to 10 nM; as for `O=C(NC1CC2(CC2)NC1=O)c1cnc(-c2cc(F)cc(Cl)c2)s1` (racemic) [Example 20, Racemic 2-(3-Chloro-5-fluorophenyl)-N-(5-oxo-4-azaspiro[2.4]heptan-6-Yl)thiazole-5-carboxamide], 10.2 to 100 nM.
`CN(C(=O)c1cnc(-c2cc(F)cc(Cl)c2)s1)C1CCNC1=O` (racemic) [Example 65, Racemic 2-(3-Chloro-5-fluorophenyl)-N-methyl-N-(2-oxopyrrolidin-3-yl)thiazole-5-carboxamide]: the IC50 was 1020 to 10000 nM.
As for `O=C1NCC[C@@H]1NS(=O)(=O)c1cnc(-c2ccccc2)s1` [Example 86, (S)-N-(2-Oxopyrrolidin-3-yl)-2-phenylthiazole-5-sulfonamide], the IC50 is more than 10000 nM.
As for `CN(C(=O)c1cnc(-c2cc(F)cc(Cl)c2)s1)[C@H]1CCNC1=O` [Example 66, (S)-2-(3-Chloro-5-fluorophenyl)-N-methyl-N-(2-oxopyrrolidin-3-yl)thiazole-5-carboxamide], the figure is 1020 to 10000 nM.
Take `O=C(N[C@H]1CC2(CCC2)NC1=O)c1cnc(-c2cc(F)cc(Cl)c2)s1` [Example 29, (S)-2-(3-Chloro-5-fluorophenyl)-N-(6-oxo-5-azaspiro[3.4]octan-7-yl)thiazole-5-carboxamide]: the IC50 is 1.02 to 10 nM.
`Cc1cccc(-c2ncc(C(=O)N[C@H]3CCNC3=O)s2)n1` [Example 46, (S)-2-(6-Methylpyridin-2-yl)-N-(2-oxopyrrolidin-3-yl)thiazole-5-carboxamide]: the IC50 was 102 to 1000 nM.
With `O=C(NC1CC2(COC2)NC1=O)c1cnc(-c2cc(F)cc(Cl)c2)s1` (racemic) [Example 55, Racemic 2-(3-Chloro-5-fluorophenyl)-N-(6-oxo-2-oxa-5-azaspiro[3.4]octan-7-yl)thiazole-5-carboxamide], the IC50 is 1.02 to 10 nM.
With `O=C(N[C@@H]1C(=O)N[C@H]2COC[C@H]21)c1cnc(-c2cc(F)cc(Cl)c2)s1` (racemic) [Example 52, Racemic 2-(3-Chloro-5-fluorophenyl)-N-((3S,3aR,6aR)-2-oxohexahydro-1H-furo[3,4-b]pyrrol-3-yl)thiazole-5-carboxamide; and 2-(3-Chloro-5-fluorophenyl)-N-((3R,3aS,6aS)-2-oxohexahydro-1H-furo[3,4-b]pyrrol-3-yl)thiazole-5-carboxamide], the IC50 is 10.2 to 100 nM.
With `C[C@@H]1C[C@H](NC(=O)c2cnc(-c3cc(F)cc(Cl)c3)s2)C(=O)N1` [Example 62, 2-(3-Chloro-5-fluorophenyl)-N-((3S,5R)-5-methyl-2-oxopyrrolidin-3-yl)thiazole-5-carboxamide], the IC50 was 10.2 to 100 nM.
Take `C[C@H]1[C@H](C)NC(=O)[C@@H]1NC(=O)c1cnc(-c2cc(F)cc(Cl)c2)s1` (racemic) [Example 34, Racemic 2-(3-Chloro-5-fluorophenyl)-N-((3R,4S,5S)-4,5-dimethyl-2-oxopyrrolidin-3-yl)thiazole-5-carboxamide; and 2-(3-Chloro-5-fluorophenyl)-N-((3S,4R,5R)-4,5-dimethyl-2-oxopyrrolidin-3-yl)thiazole-5-carboxamide]: the IC50 is 10.2 to 100 nM.
As for `O=C(N[C@H]1CCNC1=O)c1cnc(-c2cccnc2)s1` [Example 40, (S)-N-(2-Oxopyrrolidin-3-yl)-2-(pyridin-3-yl)thiazole-5-carboxamide], the figure is 102 to 1000 nM; as for `O=C(N[C@H]1CCNC1=O)c1cnc(-c2cc(Cl)cc(Cl)c2)s1` [Example 9, (S)-2-(3,5-Dichlorophenyl)-N-(2-oxopyrrolidin-3-yl)thiazole-5-carboxamide], 1.02 to 10 nM; as for `C[C@H]1C[C@H](NC(=O)c2cnc(-c3cc(F)cc(Cl)c3)s2)C(=O)N1` [Example 81, 2-(3-Chloro-5-fluorophenyl)-N-((3S,5S)-5-methyl-2-oxopyrrolidin-3-yl)thiazole-5-carboxamide], 1.02 to 10 nM.
For the compound `O=C(N[C@@H]1CC2(CC2)NC1=O)c1cnc(-c2cc(F)cc(Cl)c2)s1` [Example 22, (R)-2-(3-Chloro-5-fluorophenyl)-N-(5-oxo-4-azaspiro[2.4]heptan-6-yl)thiazole-5-carboxamide], the IC50 is 102 to 1000 nM.

The values above are taken from patent US20220009918A1, “Chemical Compounds” (GlaxoSmithKline Intellectual Property Development Limited, priority 2018, published 2022).
